Measured values: article PMC6279743, “A small molecule ApoE4-targeted therapeutic candidate that normalizes sirtuin 1 levels and improves cognition in an Alzheimer’s disease mouse model” (Scientific Reports, 2018)
“Also recorded” adds a separate entry of the source. Read-outs that look alike come from different tables or passages of the source.

How the values were obtained:
[1] = system: SirT1 levels in N2a-E4 cells; assay: SirT1 AlphaLISA in N2a-E4 cells (HTS, secondary and dose-response testing); type: cell-based, murine; conditions: for Dose-response increase in SirT1 in secondary testing: N2a-E4 cells, 1, 5 and 10 μM; for SirT1 level in HTS: 24 hrs, NIH Clinical Collection screen, A03 5 μM as positive control; for SirT1 increase, racemate vs enantiomers: 5 and 50 μM, n = 3 wells
Method: For HTS we tested a portion of the UCLA compound library (10 plates) including the NIH Clinical Collection library (3 plates). Complete medium (25 µL) was added to each well of 384-well plates, then library compounds were added (250 nL) followed by a suspension of 4 × 10^5 cells/mL murine neuroblastoma N2a cells (25 μL) stably transfected with ApoE4 (N2a-E4). After incubation of the N2a-E4 cells with compounds for 24 hrs at 37 °C and 5% CO2, all but ~6 μL of medium were removed and AlphaLISA Lysis Buffer complemented with HALT protease/phosphatase inhibitor (20 μL, 1X final) was added to each well. To maximize lysis, the plates were frozen at −80 °C. For the AlphaLISA, lysates were thawed and vortexed for 1 min at 3000 rpm.
The AlphaLISA comprises streptavidin donor beads, biotinylated anti-SirT1 N-terminal antibody (19A7AB4), and acceptor beads conjugated to the anti-SirT1 C-terminal antibody (1F3); when the target protein is bound by both antibodies, the beads are in close enough proximity for a transfer of ^1O2 and emission of a detectable signal (Supplementary Fig. S3). For the AlphaLISA, a 384-proxy plate was preloaded with AlphaLISA buffer (2 µL, 1X) with HALT (1X), then cell lysate (2 μL) was transferred to the proxy plate followed by the antibody-mix (2 μL). After incubation at room temperature for 1 hr, the donor bead mixture was added (2 µL) and incubated for an additional 30 min. The plates were then read in an Envision plate reader. All points are one replicate. The standard curve is generated by serial dilution of recombinant SirT1 to assess the linear range of the assay; study samples undergo serial dilution as well. We use A03 as a positive control in the HTS assay. The Z-value, while not ideal, was <1 for the assay (Supplementary Fig. S3).
Compound in medium (50 µL, 2X) was loaded into a 96-well plate, then 4 × 10^4 cells were added to each well; 24 hrs later the medium was removed and cells lysed. Lysate protein concentration was determined using the Bradford assay according to the manufacturer’s instructions. SirT1 was determined in lysates using the SirT1 AlphaLISA as described above.

[2] = Pharmacokinetics after oral delivery in mice; type: in vivo; conditions: oral 10 mg/kg; for Tmax / AUC: mouse; for Tmax: brain, n = 1 per time point; for AUC: plasma; for AUC / AUC brain: 1-8 hours
Method: All in vivo experiments described were carried out in strict accordance with good animal practice according to NIH recommendations. All procedures for animal use were approved by the Animal Research Committee (ARC) at UCLA and under an approved ARC protocol. Pharmacokinetic (PK) analysis[68]–[70] consisted of oral delivery of compounds (10 mg/Kg) to individual mice followed by euthanasia at 1, 2, 4, 6, and 8 hours post-dose by ketamine/xylazine over-anesthesia, blood collection by cardiac puncture, and transcardial saline perfusion. Whole blood was centrifuged at 5000 rpm for 10 min. in a 5 °C centrifuge to isolate plasma and the plasma stored at −20 °C before analysis. Whole brains were collected, dissected down the midline, snap frozen on dry ice, and stored at −80 °C before analysis. The levels of the compounds in both plasma and brain tissue were determined by a quantitative LC/MS/MS methodology at Integrated Analytical Solutions (IAS, Berkeley, CA). Plasma samples were precipitated with an acetonitrile: methanol (1:1) cocktail containing an internal standard. Brain samples were homogenized directly in ethyl acetate by the liquid-liquid method. The resulting supernatant was evaporated to dryness and subjected to LC/MS/MS analysis. The Tmax, Cmax, brain-to-plasma ratios and brain levels were then calculated using PK Solutions software (SummitPK).

[3] = Parallel Artificial Membrane Permeability Assay (PAMPA; IAM column); type: in vitro ADME; conditions: for retention time (Tr) in PAMPA: IAM.PC.DD2 column, acetonitrile:PBS (pH 5.6) 35:65; for KIAM: KIAM = (Tr-T0)/T0, T0 = 1.24 min; for (KIAM/MW^4) * 10^−(10): MW 255.74 g/mol
Method: We used L(+)tartaric acid to isolate the L-enantiomer salt and D(-) tartaric acid to isolate the D-enantiomer salt, followed by neutralization of the salt with NaOH and re-crystallization to obtain the enantiomers. Enantiomer abundance (Supplementary Fig. S4) was determined by HPLC using a Chiralpak IB column. Isopropanol (0.2% diethylamine)/hexanes was used for gradient elution with 5–50% isopropanol (0.2% diethylamine) for 11 min, a Chiralpak IB column, and with sample (1 μL, 1.25 mg/mL) injection, 220 nm wavelength detection, and a flow rate of 1 mL/min. […] The L-alanine analog co-elutes with enantiomer-1 while the D-alanine analog co-elutes with enantiomer-2. Analysis of the enantiomers and A03 in the Parallel Artificial Membrane Permeability Assay (PAMPA) was performed and is described in Supplementary Methods. […]
PAMPA. An IAM.PC.DD2 Regis Technologies analytical (10 cm x 4.6 mm) column wherein phospholipid is bonded on 10 μm, 300 Å, spherical aminopropyl silica and end capped with C10 and C3 amides was used to determine membrane permeability of A03, E1 and E2. An isocratic method was used with a mobile phase comprising acetonitrile:PBS (pH 5.6) equal to 35:65, an injection volume of 5 µL, and a flow rate of 1 mL/min. The parameters determined are Tr = retention time of compound; KIAM= (Tr-T0)/T0; T0= is the delay time of the column, determined by use of 100 µg/mL citric acid) and was T0= 1.24 min; and (KIAM/MW4)*10-(10). The molecular weight of all three compounds was 255.74 g/mol. […]
Supplementary Fig. S1. […] (a) Transient transfection with either
ApoE3 or E4 decreased SirT1 levels as compared to empty vector (Pc/DMSO), but the decrease was greater with […]

[4] = Pharmacokinetics after subcutaneous (SQ) injection in mice; type: in vivo; conditions: mouse, mice, SQ 10 mg/kg; for Cmax: brain, n = 1, read-out: Cmax in brain
[5] = Brain compound levels 2 hours after the last dose in efficacy studies; type: in vivo, mice; conditions: pilot study, SQ 10 mg/kg/day, 28 days, n = 8
Method: Mice were euthanized and blood/tissues collected 2 hrs after dosing on day 28 by the method described above for PK. Frontal and parietal cortices (FrCx and PtCx, respectively), as well as the remaining brain tissue, from individual mice were dissected, snap frozen on dry ice, and stored at −80 °C. Plasma samples and the brain tissue minus the FrCx and PtCx (the ‘rest’) from all compound-treated mice were sent to IAS for compound level analysis as described above.
Mice were euthanized and blood/tissues collected 2 hrs after dosing on Day 25 by the method described above for PK. FrCx, PtCx, and hippocampi (Hip) were collected from all mice for SirT1 and sAPPα level determination by AlphaLISA. Protein concentration was determined using a Bradford protein assay. Brain and plasma levels of A03 were determined at IAS.
Mice were euthanized and blood/tissues collected 2 hrs after dosing on Day 56 by the method described above for PK. Hip and FrCx were collected for analysis of SirT1, sAPPα, and Aβ1-42 levels by AlphaLISA. For Aβ1-42 the Perkin Elmer kit AL276C was used. Protein concentrations were determined using the Bradford protein assay. The sAPPα and sAPPβ AlphaLISAs were similar to the SirT1 AlphaLISA (see Supplementary Fig. S3) but the former uses anti-sAPPα antibody AF1168 and 2B3-biotinylated antibodies and the latter an anti-sAPPβ antibody (IBL Cat. #18957) and an anti-N-terminal APP antibody (R&D Systems AF1168) instead of anti-SirT1 antibodies. Brain tissue and plasma were sent to IAS for A03 level analysis.

[6] = system: humans; design: method as in PMID 22616762; conditions: cited from earlier work
[7] = secondary assay, N2a-E4 cells, n = 6 wells

SMILES | Dose-response increase in SirT1 in secondary testing [1] | SirT1 level in HTS ([1]; N2a-E4 cells) | SirT1 increase vs DMSO control at 1 μM [1, 7] | Tmax [2] [h] | AUC [2] [ng·h/mL] | AUC brain [2] [ng·h/g] | retention time (Tr) in PAMPA [3] | KIAM [3] | (KIAM/MW^4) * 10^−(10) [3] | SirT1 increase, racemate vs enantiomers ([1]; N2a-E4 cells) | also measured
CNCCC(Oc1ccc(C(F)(F)F)cc1)c1ccccc1 (centres unmarked) [fluoxetine, reference compound] | neither fluoxetine nor memantine (Fig. 3a) elicited a dose-response increase in SirT1 | neither fluoxetine nor memantine enhanced SirT1 | only A03 and memantine at 1 μM elicited modest but significant increases | – | – | – | – | – | – | – | –
C[C@H](N)C(=O)OC(C)(C)Cc1ccc(Cl)cc1 [E1] | – | – | – | 1 | 86 | 850 | 3.3 | 1.66 | 3.88 | more effective in increasing SirT1 in vitro compared to the optical antipode E2; also recorded: increase SirT1 in N2a-E4 with high significance | Cmax ([4]; sc): ~5600 ng/g; Cmax ([4]; subcutaneous): ~5800 ng/g; AUC ([4]; plasma, sc): 657 ng·h/mL; Brain levels 2 hours after the last dose, E1 vs A03 [5]: slightly lower
Cc1nc(-c2cccnc2)sc1C(=O)Nc1ccccc1-c1cn2c(CN3CCOCC3)csc2n1 [SRT2104] | – | – | – | – | – | – | – | – | – | – | Tolerability after single and multiple oral dosing [6]: well tolerated
C[C@@H](N)C(=O)OC(C)(C)Cc1ccc(Cl)cc1 [E2] | – | – | – | 1 | 104 | 806 | 3.31 | 1.67 | 3.90 | shows lower potency | –
CC12CC3CC(C)(C1)CC(N)(C3)C2 [memantine, reference compound] | neither fluoxetine nor memantine (Fig. 3a) elicited a dose-response increase in SirT1 | neither fluoxetine nor memantine enhanced SirT1 | modest but significant increases | – | – | – | – | – | – | – | SirT1 increase vs DMSO control at 5 and 10 μM ([1]; secondary assay, N2a-E4 cells, 5 and 10 μM, n = 6 wells): not at 5 or 10 μM
